From publication PMC9281569, “Two HCN4 Channels Play Functional Roles in the Zebrafish Heart” (Frontiers in Physiology, 2022)
Values joined by “and” are separate entries in the source; they are usually repeats but may differ in a detail not shown here. Equal values may be shown once. Where a name gives a salt, the structure may show the parent alone. Read-outs that look alike come from different tables or passages of the source.

Tests used:
[1] = target: T1, DrHCN4L (Danio rerio, UniProt A0A8N7TEJ3); test: Inhibition of HCN4 currents in Xenopus oocytes, two-electrode voltage clamp; assay type: cell-based, zebrafish (Danio rerio); conditions: holding −30 mV, hyperpolarized to −120 mV for 2 s, room temperature
T1 sequence (A0A8N7TEJ3 1-1188): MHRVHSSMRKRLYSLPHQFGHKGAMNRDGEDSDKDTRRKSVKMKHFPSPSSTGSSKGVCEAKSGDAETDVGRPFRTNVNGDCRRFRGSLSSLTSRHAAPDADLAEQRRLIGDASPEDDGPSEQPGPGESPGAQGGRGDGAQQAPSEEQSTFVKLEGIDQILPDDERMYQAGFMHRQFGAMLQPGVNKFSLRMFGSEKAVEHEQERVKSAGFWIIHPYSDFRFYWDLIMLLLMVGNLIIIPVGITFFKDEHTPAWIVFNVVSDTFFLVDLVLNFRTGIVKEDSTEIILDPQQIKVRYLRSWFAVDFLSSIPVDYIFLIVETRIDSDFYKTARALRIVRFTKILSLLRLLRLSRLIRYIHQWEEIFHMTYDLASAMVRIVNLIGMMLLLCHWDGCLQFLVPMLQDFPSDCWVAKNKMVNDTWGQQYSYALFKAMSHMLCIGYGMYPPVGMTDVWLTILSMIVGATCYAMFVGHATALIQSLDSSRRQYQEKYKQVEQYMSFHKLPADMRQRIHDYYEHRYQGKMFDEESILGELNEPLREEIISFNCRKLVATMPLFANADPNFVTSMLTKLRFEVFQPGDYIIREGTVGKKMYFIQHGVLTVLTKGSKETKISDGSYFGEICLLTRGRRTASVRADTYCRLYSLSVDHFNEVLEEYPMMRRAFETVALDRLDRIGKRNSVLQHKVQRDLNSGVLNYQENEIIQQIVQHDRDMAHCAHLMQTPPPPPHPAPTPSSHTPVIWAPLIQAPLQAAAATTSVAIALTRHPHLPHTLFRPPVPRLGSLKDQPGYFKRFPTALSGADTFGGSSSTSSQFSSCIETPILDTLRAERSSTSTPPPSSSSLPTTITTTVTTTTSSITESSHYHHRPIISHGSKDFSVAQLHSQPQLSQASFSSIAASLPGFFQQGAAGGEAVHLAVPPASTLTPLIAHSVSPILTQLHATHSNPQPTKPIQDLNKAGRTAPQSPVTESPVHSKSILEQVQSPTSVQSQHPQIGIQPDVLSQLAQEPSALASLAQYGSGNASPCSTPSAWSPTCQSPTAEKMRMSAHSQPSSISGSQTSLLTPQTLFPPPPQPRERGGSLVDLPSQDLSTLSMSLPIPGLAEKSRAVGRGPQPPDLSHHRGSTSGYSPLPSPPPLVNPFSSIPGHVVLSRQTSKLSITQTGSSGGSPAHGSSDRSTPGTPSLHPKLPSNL

[2] = test system: patients; design: method as in Swedberg et al., 2010; conditions: administration to patients; ref Swedberg et al., 2010; cited from earlier work
[3] = test system: Isolated adult zebrafish heart; design: method as in Stoyek et al., 2022; conditions: bath application; ref Stoyek et al., 2022; cited from earlier work
[4] = DrHCN4L in Xenopus oocytes, read-out: IC50

SMILES	IC50 [1, 4] [µM]	Reduction of heart rate [2]	IC50 ([1]; IC50, DrHCN4L in Xenopus oocytes)	Block of isolated adult zebrafish heart [3] [%]	IC50 ([1]; DrHCN4L in Xenopus oocytes, listed as Cs^+, read-out: IC50) [µM]
CCN(c1ccccc1)c1cc(=NC)n(C)c(C)n1.Cl [ZD7288]	596 ± 383				
COc1cc2c(cc1OC)CC(=O)N(CCCN(C)C[C@H]1Cc3cc(OC)c(OC)cc31)CC2 [Ivabradine, ivabradine hydrochloride]		about 20%	10 µM and 10.4 µM	86	
[Cl-].[Cs+] [Cesium ion, Cesium chloride]	48.3 ± 6.9			73	48 ± 7
